Assay results taken from ChEMBL document CHEMBL1132525, “Indolocarbazole poisons of human topoisomerase I: regioisomeric analogues of ED-110” (Bioorg Med Chem Lett, 1999).

Legend:
DU-145 [1] = assay: In vitro antitumor activity against human solid tumor prostate cell line DU-145; type: functional, cell-based
HT-29 [2] = assay: In vitro antitumor activity against human solid tumor colon cell line HT-29; type: functional, cell-based
OVCAR-3 [3] = assay: In vitro antitumor activity against human solid tumor ovarian cell line OVCAR-3; type: functional, cell-based
DNA topoisomerase 1 = molecular target: T1, DNA topoisomerase 1 (Homo sapiens, UniProt P11387); assay: Concentration required to inhibit human DNA topoisomerase I (Topo I)
T1 sequence (P11387 whole entry): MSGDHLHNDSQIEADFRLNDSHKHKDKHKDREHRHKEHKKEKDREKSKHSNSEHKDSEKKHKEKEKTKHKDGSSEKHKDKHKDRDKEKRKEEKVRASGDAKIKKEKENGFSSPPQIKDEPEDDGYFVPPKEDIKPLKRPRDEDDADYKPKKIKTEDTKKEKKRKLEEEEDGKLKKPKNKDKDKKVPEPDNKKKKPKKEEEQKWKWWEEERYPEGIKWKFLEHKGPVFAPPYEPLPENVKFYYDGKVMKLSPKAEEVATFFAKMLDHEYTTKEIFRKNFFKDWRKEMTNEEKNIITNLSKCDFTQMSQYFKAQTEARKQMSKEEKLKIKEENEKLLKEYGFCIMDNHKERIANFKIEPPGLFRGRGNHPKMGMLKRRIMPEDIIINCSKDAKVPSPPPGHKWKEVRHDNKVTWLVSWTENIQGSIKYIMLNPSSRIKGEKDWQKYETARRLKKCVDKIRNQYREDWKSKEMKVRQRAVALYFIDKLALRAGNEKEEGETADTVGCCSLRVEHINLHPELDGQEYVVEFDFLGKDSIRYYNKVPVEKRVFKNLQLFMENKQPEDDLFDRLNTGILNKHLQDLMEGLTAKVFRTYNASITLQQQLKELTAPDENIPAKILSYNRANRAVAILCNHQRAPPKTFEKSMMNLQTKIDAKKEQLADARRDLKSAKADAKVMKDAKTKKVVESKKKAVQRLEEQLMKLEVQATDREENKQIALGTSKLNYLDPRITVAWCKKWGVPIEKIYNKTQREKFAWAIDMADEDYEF

DU-145 [4] = assay: In vitro antitumor activity against human solid tumor prostate cell line DU-145; No active; type: functional, cell-based
HT-29 [5] = assay: In vitro antitumor activity against human solid tumor colon cell line HT-29; No active; type: functional, cell-based
OVCAR-3 [6] = assay: In vitro antitumor activity against human solid tumor ovarian cell line OVCAR-3; No active; type: functional, cell-based

Row | SMILES | IC50 (DU-145 [1]) [nM] | IC50 (HT-29 [2]) [nM] | IC50 (OVCAR-3 [3]) [nM] | IC50 (DNA topoisomerase 1) [nM] | IC50 (DU-145 [4]) | IC50 (HT-29 [5]) | IC50 (OVCAR-3 [6])
1 | O=C1NC(=O)c2c1c1c3cccc(O)c3[nH]c1c1c2c2cccc(O)c2n1C1OC(CO)C(O)C(O)C1O (centres undefined) | 2300 | > 10000 | 920 | 13000 |  |  | 
2 | O=C1NC(=O)C(c2cn(C3OC(CO)C(O)C(O)C3O)c3c(O)cccc23)=C1c1c[nH]c2c(O)cccc12 (centres undefined) |  |  |  |  | Not Active | Not Active | Not Active

Continued, values first:

Row | IC50 (DU-145 [1]) [nM] | IC50 (HT-29 [2]) [nM] | IC50 (OVCAR-3 [3]) [nM] | IC50 (DNA topoisomerase 1) [nM] | IC50 (DU-145 [4]) | IC50 (HT-29 [5]) | IC50 (OVCAR-3 [6]) | SMILES
3 | 67 | 840 | 190 | 1500 |  |  |  | O=C1NC(=O)c2c1c1c3cc(O)ccc3[nH]c1c1c2c2cc(O)ccc2n1C1OC(CO)C(O)C(O)C1O (centres undefined)
4 | 950 | 1300 | 440 | 36000 |  |  |  | O=C1NC(=O)c2c1c1c([nH]c3cccc(O)c31)c1c2c2c(O)cccc2n1C1OC(CO)C(O)C(O)C1O (centres undefined)
5 | 120 | 9700 | 190 | 2300 |  |  |  | O=C1NC(=O)c2c1c1c3ccc(O)cc3[nH]c1c1c2c2ccc(O)cc2n1C1OC(CO)C(O)C(O)C1O (centres undefined)
